According to paper PMC4468002 (Bioorganic & medicinal chemistry, 2015):

Experiments:
human D3R = human D3R (Homo sapiens, UniProt P35462); experiment: Radioligand competition binding, [3H]N-methylspiperone, D3R; conditions: ratio of Ki values; Table 2
[1] = Phase I metabolic stability in mouse liver microsomes with NADPH; type: in vitro ADME; conditions: 60 min incubation, 1 μM compound

Chain of human D3R (P35462 whole entry): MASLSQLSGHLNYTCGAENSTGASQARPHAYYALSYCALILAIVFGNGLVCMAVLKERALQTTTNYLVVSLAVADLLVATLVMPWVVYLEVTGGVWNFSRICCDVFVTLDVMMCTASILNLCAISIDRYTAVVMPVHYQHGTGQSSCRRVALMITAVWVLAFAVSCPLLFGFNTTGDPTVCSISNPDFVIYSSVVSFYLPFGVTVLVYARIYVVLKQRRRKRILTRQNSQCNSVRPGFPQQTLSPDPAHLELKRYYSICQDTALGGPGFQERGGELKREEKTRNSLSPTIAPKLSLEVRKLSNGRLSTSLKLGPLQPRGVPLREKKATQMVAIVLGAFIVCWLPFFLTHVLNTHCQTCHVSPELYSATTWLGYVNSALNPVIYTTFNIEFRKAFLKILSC

Question: Which “Receptor selectivity D2/D3” value (human D3R) does the source give for “1-(4-(2,3-Dichlorophenyl)piperazin-1-yl)-4-(4-(quinolin-3-yl)-1H-1,2,3-triazol-1-yl)butan-2-ol [17b]” here?
Answer: The value was 14.

Question: And the “percent original compound remaining” value [1]?
Answer: The value was 26%.

Question: With “5-(4-(4-(4-(2-Methoxyphenyl)piperazin-1-yl)butyl)-1H-1,2,3-triazol-1-yl)quinoline [9d]” as the substance, how does the “Receptor selectivity D2/D3” value (human D3R) read?
Answer: Its value is 6.3.

Question: What about the “Receptor selectivity D4/D3” value (human D3R) of the same substance?
Answer: Its value is 40.
